Data on two molecules can be found in patent US12076354B2, “Antibiotic with spirulina platensis and plant extracts” (KING FAISAL UNIVERSITY, priority 2022, dated 2024).

Experiment [1] relates to multidrug resistant strain of Acinetobacter baumannii. Briefly: Disk diffusion susceptibility method, MDR Acinetobacter baumannii isolate. In kind it is cell-based. The note with it: isolated MDR strain from patients with Type 2 Diabetes Mellitus; disks with 20 μl antibiotic composition, 10 μg colistin or 15 μg Tigecycline; 2 hours at 4° C., then 37° C. The method, then: (§1) The antibiotic composition was tested using the disk diffusion susceptibility method previously published by Bauer et al. (Bauer, A. W., et al., “Antibiotic susceptibility testing by a standardized single disk method,” Amer J Clin Pathol 45: pp. 495-496 ([…])). Briefly, a multidrug resistant strain of Acinetobacter baumannii was isolated from patients with Type 2 Diabetes Mellitus in a hospital setting in Saudi Arabia. Whatman No. 1 sterilized-paper disks were saturated with 20 μl of the antibiotic composition. Disks were then dried and placed on the surface of a medium inoculated with either the isolated MDR Acinetobacter baumannii or Acinetobacter baumannii (ATCC17978). A further test was run using either 10 μg colistin or 15 μg Tigecycline as controls. The plates containing the inoculated medium were kept for 2 hours at 4° C. to ensure the diffusion of the bioactive material, and then were incubated at 37° C. Disks containing 30 μl of water were used as a negative control.
On the technique in general: Agar diffusion results depend on both activity and mobility in agar.

For experiment [2], the system named is Acinetobacter baumannii (ATCC17978). Briefly: Disk diffusion susceptibility method, Acinetobacter baumannii ATCC17978. The format is cell-based. The note with it: disks with 20 μl antibiotic composition, 10 μg colistin or 15 μg Tigecycline, 2 hours at 4° C., then 37° C. The method, then:
as §1

`CN(C)c1cc(NC(=O)CNC(C)(C)C)c(O)c2c1C[C@H]1C[C@H]3[C@H](N(C)C)C(O)=C(C(N)=O)C(=O)[C@@]3(O)C(O)=C1C2=O` [Tigecycline]: the zones of inhibition entry in experiment [1] and in experiment [2] was “not around the traditional antibiotic controls” throughout.

For colistin, the zones of inhibition result in experiment [1] and in experiment [2] was “not around the traditional antibiotic controls” each time.
